Assay results taken from PubChem BioAssay AID256 (DTP/NCI, 2004).
Several values for one entry are separate records, joined by “and”; a condition that tells them apart may be missing. Equal values may be shown once. Inconclusive results and toxic doses are left out.

Tested on: CD2F1 mice, L1210 leukemia ip, survival T/C
Assay: NCI In Vivo Anticancer Drug Screen. Data for tumor model L1210 Leukemia (intraperitoneal) in CD2F1 (CDF1) mice
Settings: higher = longer survival
Method in brief: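 Antitumor effect is scored in animals hosting a serially transplanted tumor. Values compare compound-dosed animals against vehicle-only controls as a simple quotient.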

[1] = endpoint: mean survival time, dose: 100.0 mg/kg/injection, schedule: Q01DX001 (ip), vehicle: saline with Tween-80
[2] = endpoint: mean survival time, dose: 200.0 mg/kg/injection, schedule: Q01DX001 (ip), vehicle: saline with Tween-80
[3] = endpoint: mean survival time, dose: 400.0 mg/kg/injection, schedule: Q01DX001 (ip), vehicle: saline with Tween-80
[4] = endpoint: mean survival time, dose: 100.0 mg/kg/injection, schedule: Q04DX002 (ip), vehicle: saline with Tween-80
[5] = endpoint: mean survival time, dose: 200.0 mg/kg/injection, schedule: Q04DX002 (ip), vehicle: saline with Tween-80
[6] = endpoint: mean survival time, dose: 200.0 mg/kg/injection, schedule: Q01DX001 (ip), vehicle: saline
[7] = endpoint: mean survival time, dose: 100.0 mg/kg/injection, schedule: Q04DX003 (ip), vehicle: saline with Tween-80
[8] = endpoint: mean survival time, dose: 200.0 mg/kg/injection, schedule: Q04DX003 (ip), vehicle: saline with Tween-80
[9] = endpoint: mean survival time, dose: 400.0 mg/kg/injection, schedule: Q04DX003 (ip), vehicle: saline
[10] = endpoint: mean survival time, dose: 50.0 mg/kg/injection, schedule: Q01DX009 (ip), vehicle: saline with Tween-80
[11] = endpoint: mean survival time, dose: 100.0 mg/kg/injection, schedule: Q01DX009 (ip), vehicle: saline with Tween-80
[12] = endpoint: mean survival time, dose: 200.0 mg/kg/injection, schedule: Q01DX009 (ip), vehicle: saline with Tween-80

CC(=O)CC(=O)c1ccccc1.CC(=O)CC(=O)c1ccccc1.[Pd]
T/C (endpoint: mean survival time, dose: 3.13 mg/kg/injection, schedule: Q04DX003 (ip), vehicle: distilled water + Tween-80): 98 % of control | T/C (endpoint: mean survival time, dose: 6.25 mg/kg/injection, schedule: Q04DX003 (ip), vehicle: distilled water + Tween-80): 89 % of control | T/C (endpoint: mean survival time, dose: 12.5 mg/kg/injection, schedule: Q04DX003 (ip), vehicle: distilled water + Tween-80): 100 % of control | T/C (endpoint: mean survival time, dose: 25.0 mg/kg/injection, schedule: Q04DX003 (ip), vehicle: distilled water + Tween-80): 86 % of control | T/C (endpoint: mean survival time, dose: 50.0 mg/kg/injection, schedule: Q04DX003 (ip), vehicle: distilled water + Tween-80): 87 % of control | T/C (endpoint: mean survival time, dose: 100.0 mg/kg/injection, schedule: Q04DX003 (ip), vehicle: distilled water + Tween-80): 89 % of control | T/C (endpoint: mean survival time, dose: 200.0 mg/kg/injection, schedule: Q04DX003 (ip), vehicle: distilled water + Tween-80): 93 % of control

O=S(=O)(Nc1ccc(NS(=O)(=O)c2ccccc2)c(N2CCOCC2)c1)c1ccccc1
T/C [1]: 101 % of control | T/C [2]: 101 % of control | T/C [3]: 92 % of control

CS(=O)(=O)Oc1ccccc1OS(C)(=O)=O
T/C (endpoint: mean survival time, dose: 50.0 mg/kg/injection, schedule: Q04DX002 (ip), vehicle: saline with Tween-80): 113 % of control | T/C [4]: 113 % of control | T/C [5]: 101 % of control

NC(=O)OCC#CCN1CCCC1
T/C (endpoint: mean survival time, dose: 5.0 mg/kg/injection, schedule: Q01DX009 (ip), vehicle: saline with Tween-80): 102 % of control | T/C (endpoint: mean survival time, dose: 10.0 mg/kg/injection, schedule: Q01DX009 (ip), vehicle: saline with Tween-80): 103 % of control | T/C (endpoint: mean survival time, dose: 20.0 mg/kg/injection, schedule: Q01DX009 (ip), vehicle: saline with Tween-80): 100 % of control

CN(C)/C=N\c1ncnc2c1ncn2C1OC(CO)C2OC(C)(C)OC21 (stereo not drawn)
T/C [4]: 109 % of control | T/C [5]: 109 % of control | T/C (endpoint: mean survival time, dose: 400.0 mg/kg/injection, schedule: Q04DX002 (ip), vehicle: saline with Tween-80): 114 % of control

OCC1OC(Sc2cc(Cl)ccc2Cl)C(O)C(O)C1O (stereo not drawn)
T/C (endpoint: mean survival time, dose: 100.0 mg/kg/injection, schedule: Q01DX001 (ip), vehicle: saline): 103 % of control | T/C [6]: 100 % of control | T/C (endpoint: mean survival time, dose: 400.0 mg/kg/injection, schedule: Q01DX001 (ip), vehicle: saline): 100 % of control

O/N=C/c1ccccn1
T/C (endpoint: mean survival time, dose: 75.0 mg/kg/injection, schedule: Q04DX003 (ip), vehicle: saline with Tween-80): 96 % of control | T/C (endpoint: mean survival time, dose: 150.0 mg/kg/injection, schedule: Q04DX003 (ip), vehicle: saline with Tween-80): 104 % of control | T/C (endpoint: mean survival time, dose: 300.0 mg/kg/injection, schedule: Q04DX003 (ip), vehicle: saline with Tween-80): 98 % of control

Cc1cc(=O)n(C)c2ccccc12
T/C (endpoint: mean survival time, dose: 50.0 mg/kg/injection, schedule: Q04DX003 (ip), vehicle: saline with Tween-80): 95 % of control | T/C [7]: 103 % of control | T/C [8]: 97 % of control

FC(F)(F)c1cccc(NC2=NCCS2)c1
T/C (endpoint: mean survival time, dose: 12.5 mg/kg/injection, schedule: Q01DX001 (ip), vehicle: saline with Tween-80): 106 % of control | T/C (endpoint: mean survival time, dose: 25.0 mg/kg/injection, schedule: Q01DX001 (ip), vehicle: saline with Tween-80): 110 % of control | T/C (endpoint: mean survival time, dose: 50.0 mg/kg/injection, schedule: Q01DX001 (ip), vehicle: saline with Tween-80): 101 % of control | T/C [1]: 110 % of control | T/C [2]: 106 % of control | T/C [3]: 105 % of control

CCN(CCNc1ccc(C)c2sc3ccccc3c(=O)c12)CC(C)(C)O
T/C [6]: 112 % of control | T/C [9]: 174 % of control

Cc1ccc(S(=O)(=O)OCC(O)C2OCOC3COCOC32)cc1 (stereo not drawn)
T/C (endpoint: mean survival time, dose: 100.0 mg/kg/injection, schedule: Q01DX001 (ip), vehicle: Klucel (hydroxypropylcellulose) (HPC)): 101 % of control | T/C (endpoint: mean survival time, dose: 200.0 mg/kg/injection, schedule: Q01DX001 (ip), vehicle: Klucel (hydroxypropylcellulose) (HPC)): 103 % of control | T/C (endpoint: mean survival time, dose: 400.0 mg/kg/injection, schedule: Q01DX001 (ip), vehicle: Klucel (hydroxypropylcellulose) (HPC)): 98 % of control | T/C (endpoint: mean survival time, dose: 600.0 mg/kg/injection, schedule: Q01DX001 (ip), vehicle: Klucel (hydroxypropylcellulose) (HPC)): 93 % of control

O=C1NCC(Br)C(=O)N1 (stereo not drawn)
T/C (endpoint: mean survival time, dose: 6.25 mg/kg/injection, schedule: Q01DX009 (ip), vehicle: saline + Tween-80 + alcohol): 102 % of control | T/C (endpoint: mean survival time, dose: 12.5 mg/kg/injection, schedule: Q01DX009 (ip), vehicle: saline + Tween-80 + alcohol): 100 % of control and 109 % of control | T/C (endpoint: mean survival time, dose: 12.5 mg/kg/injection, schedule: Q01DX009 (ip), vehicle: saline with Tween-80): 93 % of control | T/C (endpoint: mean survival time, dose: 25.0 mg/kg/injection, schedule: Q01DX009 (ip), vehicle: saline + Tween-80 + alcohol): 93 % of control and 100 % of control | T/C (endpoint: mean survival time, dose: 25.0 mg/kg/injection, schedule: Q01DX009 (ip), vehicle: saline with Tween-80): 96 % of control | T/C (endpoint: mean survival time, dose: 50.0 mg/kg/injection, schedule: Q01DX009 (ip), vehicle: saline + Tween-80 + alcohol): 102 % of control | T/C [10]: 94 % of control | T/C (endpoint: mean survival time, dose: 100.0 mg/kg/injection, schedule: Q01DX009 (ip), vehicle: saline + Tween-80 + alcohol): 101 % of control and 105 % of control | T/C [11]: 102 % of control | T/C (endpoint: mean survival time, dose: 200.0 mg/kg/injection, schedule: Q01DX009 (ip), vehicle: saline + Tween-80 + alcohol): 113 % of control and 100 % of control | T/C [12]: 90 % of control | T/C (endpoint: mean survival time, dose: 400.0 mg/kg/injection, schedule: Q01DX009 (ip), vehicle: saline + Tween-80 + alcohol): 86 % of control

CC1=NN(c2ccc(S(=O)(=O)O)cc2)C(=O)C1
T/C [11]: 93 % of control | T/C [7]: 96 % of control | T/C [12]: 87 % of control | T/C [8]: 104 % of control | T/C (endpoint: mean survival time, dose: 400.0 mg/kg/injection, schedule: Q04DX003 (ip), vehicle: saline with Tween-80): 98 % of control

COc1ccc2c(C(=O)CCC(=O)O)cccc2c1
T/C (endpoint: mean survival time, dose: 100.0 mg/kg/injection, schedule: Q01DX009 (ip), vehicle: saline): 94 % of control | T/C (endpoint: mean survival time, dose: 200.0 mg/kg/injection, schedule: Q01DX009 (ip), vehicle: saline): 90 % of control | T/C (endpoint: mean survival time, dose: 400.0 mg/kg/injection, schedule: Q01DX009 (ip), vehicle: saline): 100 % of control

CCCCCCCS(=O)CCCl (stereo not drawn)
T/C [4]: 96 % of control | T/C [5]: 108 % of control

O=C(O)C1C2C=CC(O2)C1CO (stereo not drawn)
T/C (endpoint: mean survival time, dose: 25.0 mg/kg/injection, schedule: Q04DX002 (ip), vehicle: saline): 103 % of control | T/C (endpoint: mean survival time, dose: 50.0 mg/kg/injection, schedule: Q04DX002 (ip), vehicle: saline): 100 % of control | T/C (endpoint: mean survival time, dose: 100.0 mg/kg/injection, schedule: Q04DX002 (ip), vehicle: saline): 100 % of control

COc1cc(OC)c(NC(=O)Nc2ccc(Nc3ccccc3)cc2)cc1Cl
T/C [10]: 90 % of control | T/C [11]: 94 % of control | T/C [12]: 90 % of control

NC1CCCCC1N.O=C([O-])c1ccc(N=Nc2cccc([N+](=O)[O-])c2)cc1O.O=C([O-])c1ccc(N=Nc2cccc([N+](=O)[O-])c2)cc1O.[Pt+4]
T/C (endpoint: median survival time, dose: 3.12 mg/kg/injection, schedule: Q04DX003 (ip), vehicle: saline with Tween-80): 150 % of control and 301 % of control | T/C (endpoint: median survival time, dose: 6.25 mg/kg/injection, schedule: Q04DX003 (ip), vehicle: saline with Tween-80): 190 % of control and 247 % of control | T/C (endpoint: median survival time, dose: 12.5 mg/kg/injection, schedule: Q04DX003 (ip), vehicle: saline with Tween-80): 361 % of control and 375 % of control | T/C (endpoint: median survival time, dose: 50.0 mg/kg/injection, schedule: Q04DX003 (ip), vehicle: saline with Tween-80): 89 % of control

O=C(O/N=C(\C(=O)c1ccccc1)c1ccccc1)c1ccc(Br)cc1
T/C [1]: 90 % of control | T/C [2]: 90 % of control

CC(=O)OCC1OC(n2ccc3c(N)ncnc32)C(O)C1OC(C)=O (stereo not drawn)
T/C (endpoint: mean survival time, dose: 5.0 mg/kg/injection, schedule: Q01DX001 (ip), vehicle: saline): 112 % of control | T/C (endpoint: mean survival time, dose: 10.0 mg/kg/injection, schedule: Q01DX001 (ip), vehicle: saline): 110 % of control | T/C (endpoint: mean survival time, dose: 20.0 mg/kg/injection, schedule: Q01DX001 (ip), vehicle: saline): 108 % of control

CC(=O)C/C=C(\C)CCC=C(C)C
T/C (endpoint: mean survival time, dose: 100.0 mg/kg/injection, schedule: Q04DX003 (ip), vehicle: acetone): 91 % of control | T/C (endpoint: mean survival time, dose: 200.0 mg/kg/injection, schedule: Q04DX003 (ip), vehicle: acetone): 94 % of control | T/C (endpoint: mean survival time, dose: 400.0 mg/kg/injection, schedule: Q04DX003 (ip), vehicle: acetone): 98 % of control

CC1(C(=O)O)CCCC1C(CCC(=O)O)C(=O)O (stereo not drawn)
T/C (endpoint: mean survival time, dose: 100.0 mg/kg/injection, schedule: Q04DX003 (ip), vehicle: saline): 98 % of control | T/C (endpoint: mean survival time, dose: 200.0 mg/kg/injection, schedule: Q04DX003 (ip), vehicle: saline): 96 % of control | T/C [9]: 96 % of control
